From patent US20260306639A1, “DEGRADER FOR DECOMPOSING CMET PROTEIN, AND PHARMACEUTICAL COMPOSITION COMPRISING SAME” (INNOCURE THERAPEUTICS, INC., priority 2022, published 2026)

What was measured:
c-MET [1] = assay: c-MET protein degradation (Simple Western), SNU-638 cells; assay type: cell-based, human; conditions: SNU-638 gastric cancer cells, c-MET overexpressing; 24 hours
Experimental: (§1) In order to assess the resolution of the compound of the present invention for c-MET expressed in cells, cells were dispensed in a 12-well plate at a concentration of 2×10^5 cells/well, and then gastric cancer cell lines were treated with samples for 24 hours and lung cancer cell lines were treated for 48 hours. Cell lysates were collected using a scraper on ice, centrifuged at 4° C. 15,000 rpm for 30 min to obtain a protein-containing supernatant. Protein expression was then measured using the Simple Western Automated Western Blot System Abby instrument using 3 μg of protein for each sample. SDS and heat-induced denaturation proteins were separated by molecular weight, attached to capillary, reacted with anti-c-MET or anti-GAPDH antibodies, which are primary antibodies, and then reacted with HRP-conjugated secondary antibodies, and analyzed the protein expression signal with compass software. Protein expression was normalized based on the expression value of GAPDH, and protein development in each sample was measured as a percentage (%) based on 100% of samples treated with 0.1% DMSO carriers, and DC50 (concentration of a compound where 50% protein inhibition is achieved) was calculated from the change in protein expression amount due to compound treatment.

c-MET [2] = assay: c-MET protein degradation (Simple Western), EBC-1 cells; assay type: cell-based, human; conditions: EBC-1 lung cancer cells, c-MET overexpressing; 48 hours
Experimental: as §1

c-MET [3] = assay: c-MET protein degradation (Simple Western), MKN-45 cells; assay type: cell-based, human; conditions: MKN-45 gastric cancer cells, c-MET overexpressing; 24 hours
Experimental: as §1

MKN-45 = assay: cell viability / antiproliferative activity (WST-8), MKN-45 cells; assay type: cell-based; conditions: Homo sapiens; MKN-45 gastric cancer cells; 72 hours
Experimental: c-MET overexpressing human gastric cancer cell lines [MKN45] and [SNU638] were cultured in RPMI medium with 10% fetal bovine serum, penicillin (100 U/ml), and streptomycin (100 mg/ml), and c-MET exon 14 skipping mutant human gastric cancer cell lines [Hs746T] were cultured in DMEM media. The c-MET overexpressing human lung cancer cell line EBC-1 was cultured in MEM media with the addition of 10% fetal bovine serum, penicillin (100 U/ml), and streptomycin (100 mg/ml). […] The compound synthesized in accordance with the present invention was prepared with a raw material solution of 10 mM dissolved in DMSO (dimethyl sulfoxide), and was sequentially diluted and processed.
In order to observe the inhibitory activity on cell growth, cells were dispensed in a 96-well plate at a concentration of 5,000 cells/well, and then treated with the compound prepared at various concentrations for 72 hours. The viability of the cells was calculated using GraphicPad Prism 8.0 software by adding 10 ml per well of WST-8 (water soluble tetrazolium salt) sample, which reacts with dehydrogenase present in the electron transport system of mitochondria to produce formazon, incubated for 2 hours, and measured absorbance at 450 nm.

Row | DC50 (c-MET [1]) [nM] | DC50 (c-MET [2]) [nM] | DC50 (c-MET [3]) [nM] | IC50 (MKN-45) [nM] | Structure (SMILES)
1 | < 100 | < 100 | – | – | N#Cc1cccc(-c2ccc(=O)n(Cc3cccc(-c4ncc(OCC5CCN(c6ccc(NC7CCC(=O)NC7=O)cc6F)CC5)cn4)c3)n2)c1 (centres unmarked) [ICT-0001383]
2 | – | < 100 | – | – | N#Cc1cccc(-c2ccc(=O)n(Cc3cccc(-c4ncc(OCC5CCN(CC(=O)N6CCC(CN7CCN(c8ccc(NC9CCC(=O)NC9=O)cc8F)CC7)CC6)CC5)cn4)c3)n2)c1 (centres unmarked) [ICT-0001447, 3-(1-{[3-(5-{[1-(2-{4-[(4-{4-[(2,6-dioxopiperidin-3-yl)amino]-2-fluorophenyl}piperazine-1-yl)methyl]piperidine-1-yl}-2-oxoethyl)piperidine-4-yl]methoxy}pyrimidine-2-yl)phenyl]methyl}-6-oxo-1,6-dihydropyridazine-3-yl)benzonitrile]
3 | – | > 1000 | 100 to 1000 | – | Cc1nn(C2CCC(=O)NC2=O)c(=O)c2cc(N3CCN(CCN4CCC(COc5cnc(-c6cccc(Cn7nc(-c8cccc(C#N)c8)ccc7=O)c6)nc5)CC4)CC3)ccc12 (centres unmarked) [ICT-0001278, 3-(1-{[3-(5-{[1-(2-{4-[3-(2,6-dioxopiperidin-3-yl)-1-methyl-4-oxo-3,4-dihydropthalazine-6-yl]piperazine-1-yl}ethyl)piperidine-4-day]methoxy}pyrimidine-2-yl)phenyl]methyl}6-oxo-1,6-dihydropyridazine-3-yl)benzonitrile]
4 | – | – | < 100 | < 100 | Cc1nn(C2CCC(=O)NC2=O)c(=O)c2cc(N3CCN(CCCC(=O)N4CCC(COc5cnc(-c6cccc(Cn7nc(-c8cccc(C#N)c8)ccc7=O)c6)nc5)CC4)CC3)ccc12 (centres unmarked) [ICT-0001216, 3-(1-(3-(5-((1-(4-(4-(3-(2,6-dioxopiperidin-3-yl)-1-methyl-4-oxo-3,4-dihydroptalazine-6-yl)piperazine-1-il)butanoyl)piperidine-4-il)methoxy)pyrimidine-2-yl)benzyl)6-oxo-1,6-dihydropyridazine-3-yl)benzonitrile]
5 | – | 100 to 1000 | < 100 | – | Cc1nn(C2CCC(=O)NC2=O)c(=O)c2ccc(N3CCN(C(=O)C4CN(CC(=O)N5CCC(COc6cnc(-c7cccc(Cn8nc(-c9cccc(C#N)c9)ccc8=O)c7)nc6)CC5)C4)CC3)cc12 (centres unmarked) [ICT-0001257]
6 | < 100 | < 100 | – | – | N#Cc1cccc(-c2ccc(=O)n(Cc3cccc(-c4ncc(OCC5CCN(CCN6CCN(c7ccc(NC8CCC(=O)NC8=O)cc7F)CC6)CC5)cn4)c3)n2)c1 (centres unmarked) [ICT-0001433, 3-(1-(3-(5-((1-(1-(2-(4-((2,6-dioxopiperidine-3-yl)amino)-2-fluorophenyl)piperazine-1-il)ethyl)piperidine-4-il)methoxy)pyrimidine-2-yl)benzyl)6-oxo-1,6-dihydropyridazine-3-yl)benzonitrile]
7 | – | – | < 100 | 100 to 1000 | Cc1nn(C2CCC(=O)NC2=O)c(=O)c2ccc(NCCOCCOCCOCC(=O)N3CCC(COc4cnc(-c5cccc(Cn6nc(-c7cccc(C#N)c7)ccc6=O)c5)nc4)CC3)cc12 (centres unmarked) [ICT-0001088]
8 | > 1000 | – | < 100 | – | Cc1nn(C2CCC(=O)NC2=O)c(=O)c2c(NCC(=O)N3CCC(CN4CCC(COc5cnc(-c6cccc(Cn7nc(-c8cccc(C#N)c8)ccc7=O)c6)nc5)CC4)CC3)cccc12 (centres unmarked) [ICT-0000980]
9 | – | – | 100 to 1000 | 100 to 1000 | Cc1nn(C2CCC(=O)NC2=O)c(=O)c2ccc(NCCOCCOCCOCCOCC(=O)N3CCC(COc4cnc(-c5cccc(Cn6nc(-c7cccc(C#N)c7)ccc6=O)c5)nc4)CC3)cc12 (centres unmarked) [ICT-0001089, 3-(1-(3-(5-((1-(14-((2-(2,6-dioxopiperidine-3-yl)-4-methyl-1-oxo-1,2-dihydrophthalazine-6-yl)amino)3,6,9,12-tetratetradecanoyl)piperidine-4-yl)methoxy)pyrimidin-2-yl)benzyl)6-oxo-1,6-dihydropyridazine-3-yl)benzonitrile]
10 | – | – | – | < 100 | Cc1nn(C2CCC(=O)NC2=O)c(=O)c2cc(N3CCN(CC4CCN(C(=O)CN5CCC(COc6cnc(-c7cccc(Cn8nc(-c9cccc(C#N)c9)ccc8=O)c7)nc6)CC5)CC4)CC3)c(F)cc12 (centres unmarked) [ICT-0001231, 3-(1-(3-(5-((1-(2-(4-(4-(4-(3-(2,6-dioxopiperidine-3-yl)-7-fluoro-1-methyl-4-oxo-3,4-dihydrophthalazine-6-yl)piperazine-1-il)methyl)piperidine-1-il)-2-oxoethyl)piperidine-4-yl)methoxy)pyrimidine-2-yl)benzyl)6-oxo-1,6-dihydropyridazine-3-yl)benzonitrile]
11 | – | – | 100 to 1000 | < 100 | N#Cc1cccc(C2=NC(Cc3cccc(-c4ncc(OCC5CCN(CC(=O)N6CCN(CC7CCN(c8ccc9c(=O)n(C%10C=CC(=O)NC%10=O)ncc9c8)CC7)CC6)CC5)cn4)c3)C(=O)C=C2)c1 (centres unmarked) [ICT-0000975]
12 | < 100 | < 100 | – | – | N#Cc1cccc(-c2ccc(=O)n(Cc3cccc(-c4ncc(OCC5CCN(C(=O)CN6CCN(c7ccc(NC8CCC(=O)NC8=O)cc7F)CC6)CC5)cn4)c3)n2)c1 (centres unmarked) [ICT-0001494]
13 | – | > 1000 | < 100 | – | N#Cc1cccc(-c2ccc(=O)n(Cc3cccc(-c4ncc(OCC5CCN(CCN6CCN(c7ccc8c(=O)n(C9CCC(=O)NC9=O)ncc8c7)CC6)CC5)cn4)c3)n2)c1 (centres unmarked) [ICT-0001276, 3-(1-{[3-(5-{[1-(2-{4-[2-(2,6-dioxopiperidin-3-yl)-1-oxo-1,2-dihydropetalazine-6-yl]piperazine-1-il}ethyl)piperidine-4-il]methoxy}pyrimidine-2-yl)phenyl]methyl}-6-oxo-1,6-dihydropyridazine-3-yl)benzonitrile]
14 | > 1000 | – | – | – | Cc1nn(C2CCC(=O)NC2=O)c(=O)c2ccc(N3CCN(C4CN(CCN5CCC(COc6cnc(-c7cccc(Cn8nc(-c9cccc(C#N)c9)ccc8=O)c7)nc6)CC5)C4)CC3)cc12 (centres unmarked) [ICT-0001325]
15 | 100 to 1000 | < 100 | – | – | N#Cc1cccc(-c2ccc(=O)n(Cc3cccc(-c4ncc(-c5cccc(CN6CCC(CN7CCN(c8ccc(NC9CCC(=O)NC9=O)cc8F)CC7)CC6)c5)cn4)c3)n2)c1 (centres unmarked) [ICT-0001450]
16 | > 1000 | < 100 | – | – | N#Cc1cccc(-c2ccc(=O)n(Cc3cccc(-c4ncc(-c5cccc(CN6CCN(c7ccc(C8CCC(=O)NC8=O)cn7)CC6)c5)cn4)c3)n2)c1 (centres unmarked) [ICT-0001449]
17 | < 100 | < 100 | – | – | Cn1cc(-c2cnc3c(nnn3C[C@@H]3CN(c4ncc(-c5ccc(CN6CCN(CC(=O)N7CCN(c8ccc(NC9CCC(=O)NC9=O)cc8F)CC7)CC6)cc5)cn4)CCO3)n2)cn1 (some centres unmarked) [ICT-0001439]
18 | > 1000 | – | – | – | Cc1nn(C2CCC(=O)NC2=O)c(=O)c2cc(N3CCN(CC4CCN(CCN5CCC(COc6cnc(-c7cccc(Cn8nc(-c9cccc(C#N)c9)ccc8=O)c7)nc6)CC5)CC4)CC3)c(F)cc12 (centres unmarked) [ICT-0001326]
19 | – | < 100 | – | – | N#Cc1cccc(-c2ccc(=O)n(Cc3cccc(-c4ncc(OCC5CCN(CC(=O)N6CCN(CC7CCN(c8ccc(NC9CCC(=O)NC9=O)cc8F)CC7)CC6)CC5)cn4)c3)n2)c1 (centres unmarked) [ICT-0001468, 3-(1-{[3-(5-{[1-(2-{4-[(1-{4-[(2,6-dioxopiperidin-3-yl)amino]-2-fluorophenyl}piperidine-4-yl)methyl]piperazine-1-yl}-2-oxoethyl)piperidine-4-yl]methoxy}pyrimidine-2-yl)phenyl]methyl}-6-oxo-1,6-dihydropyridazine-3-yl)benzonitrile]
20 | < 100 | < 100 | < 100 | – | N#Cc1cccc(-c2ccc(=O)n(Cc3cccc(-c4ncc(OCC5CCN(CC(=O)N6CC(N7CCN(c8ccc9c(=O)n(C%10CCC(=O)NC%10=O)ncc9c8)CC7)C6)CC5)cn4)c3)n2)c1 (centres unmarked) [ICT-0001232]
21 | < 100 | – | < 100 | – | Cc1nn(C2CCC(=O)NC2=O)c(=O)c2ccc(N3CCN(C(=O)C4CCN(CC(=O)N5CCC(COc6cnc(-c7cccc(Cn8nc(-c9cccc(C#N)c9)ccc8=O)c7)nc6)CC5)CC4)CC3)cc12 (centres unmarked) [ICT-0001218]
22 | – | – | < 100 | – | Cc1nn(C2CCC(=O)NC2=O)c(=O)c2ccc(N3CCN(CCCCC(=O)N4CCC(COc5cnc(-c6cccc(Cn7nc(-c8cccc(C#N)c8)ccc7=O)c6)nc5)CC4)CC3)cc12 (centres unmarked) [ICT-0001176]
23 | – | – | < 100 | – | N#Cc1cccc(-c2ccc(=O)n(Cc3cccc(-c4ncc(OCC5CCN(C(=O)CCCCCCNc6ccc7c(=O)n(C8CCC(=O)NC8=O)ncc7c6)CC5)cn4)c3)n2)c1 (centres unmarked) [ICT-0000985, 3-(1-{[3-(5-{[1-(7-{[2-(2,6-dioxopiperidin-3-yl)-1-oxo-1,2-dihydrophthalazine-6-yl]amino}heptanoyl)piperidine-4-il]methoxy}pyrimidine-2-yl)phenyl]methyl}-6-oxo-1,6-dihydropyridazine-3-yl)benzonitrile]

Row | Structure (SMILES) | DC50 (c-MET [1]) [nM] | DC50 (c-MET [2]) [nM] | DC50 (c-MET [3]) [nM] | IC50 (MKN-45) [nM]
24 | Cc1nn(C2CCC(=O)NC2=O)c(=O)c2ccc(N3CCN(CC4CCN(CC(=O)N5CCC(COc6cnc(-c7cccc(Cn8nc(-c9cccc(C#N)c9)ccc8=O)c7)nc6)CC5)CC4)CC3)cc12 (centres unmarked) [ICT-0001272] | – | – | < 100 | < 100
25 | N#Cc1cccc(-c2ccc(=O)n(Cc3cccc(-c4ncc(-c5cccc(CN6CCN(c7ccc(NC8CCC(=O)NC8=O)cc7F)CC6)c5)cn4)c3)n2)c1 (centres unmarked) [ICT-0001434] | > 1000 | < 100 | – | –
